In patent US6281194A, “Cycloalkyl inhibitors of protein farnesyltransferase” (Warner-Lambert Company, priority 1999, dated 2001):
Read-outs that look alike come from different tables or passages of the source.

Experiments:
[1] = tested on: ras farnesylation in ras-transformed cells; assay: Gel shift assay; format: cell-based; conditions: 18-hour incubation
Description: Twenty-four hours after planting 2×10^6 ras-transformed cells per treatment condition, the farnesylation inhibitor is added at varying concentrations. Following an 18-hour incubation period, cells are lysed in phosphate-buffered saline containing 1% Triton X-100, 0.5% sodium deoxycholate, and 0.1% SDS (sodium dodecyl sulfate), pH 7.4 in the presence of several protease inhibitors (PMSF (phenylmethylsulfonylfluoride), antipain, leupeptin, pepstatin A, and aprotinin all at 1 μg/mL). Ras protein is immunoprecipitated from the supernatants by the addition of 3 μg v-H-ras Ab-2 (Y13-259 antibody from Oncogene Science). After overnight immunoprecipitation, 30 μL of a 50% protein G-Sepharose slurry (Pharmacia) is added followed by 45-minute incubation. Pellets are resuspended in 2× tris-glycine loading buffer (Novex) containing 5% β-mercaptoethanol and then denatured by 5 minutes boiling prior to electrophoresis on 14% Tris-glycine SDS gels. Using Western transfer techniques, proteins are transferred to nitrocellulose membranes followed by blocking in blocking buffer. Upon overnight incubation with primary antibody (pan-ras Ab-2 from Oncogene Science), an antimouse HRP (horse radish peroxidase) conjugate secondary antibody (Amersham) is employed for detection of the ras protein. Blots are developed using ECL(enhanced chemiluminescence) techniques (Amersham).

[2] = biological target: T1, SF9 affinity purified rat farnesyl protein transferase (Rattus norvegicus, UniProt Q02293+Q04631); assay: PFT inhibitory activity; format: biochemical
T1 construct: made in house; host or cells: Sf9 insect cells (baculovirus system, inferred from b7)
Description: The protein:farnesyltransferase (PFT) or farnesyl protein transferase (FPT) inhibitory activity of compounds of the present invention were assayed in HEPES buffer (pH 7.4) containing 5 mM potassium phosphate and 20 μM ZnCl2. The solution also contained 5 mM DTT (dithiothreitol), 5 mM MgCl2 and 0.1% PEG 8000. Assays were performed in 96 well plates (Wallec) and employed solutions composed of varying concentrations of a compound of the present invention in 100% DMSO (dimethylsulfoxide). Upon addition of both substrates, radiolabeled farnesyl pyrophosphate ([1-^3 H], specific activity 15-30 Ci/mmol, final concentration 134 nM) and (biotinyl)-Ahe-Thr-Lys-Cys-Val-Ile-Met ([3aS[3a alpha, 4 beta, 6a alpha]-hexahydro-2-oxo-1H-thieno[3,4-d]imidazole-5-pentanoic acid]-[7-aminoheptanoic acid]-Thr-Lys-Cys-Val-Ile-Met) (Ahe is 7-aminoheptanoic acid, Thr is threonine, Lys is lysine, Cys is cysteine, Val is valine, Ile is isoleucine and Met is methionine) (final concentration 0.2 μM), the enzyme reaction was started by addition of SF9 affinity purified rat farnesyl protein transferase. After incubation at 30° C. for 30 minutes, the reaction was terminated by diluting the reaction 2.5-fold with a stop buffer containing 1.5 M magnesium acetate, 0.2 M H3 PO4, 0.5% BSA (bovine serum albumin), and strepavidin beads (Amersham) at a concentration of 1.3 mg/mL. After allowing the plate to settle for 30 minutes at room temperature, radioactivity was quantitated on a microBeta counter (Model 1450, Wallec). The assay was also carried out without 5 mM potassium phosphate.

[3] = tested on: H61 cells: NIH transformed 3T3 H-ras cells; assay: Clonogenic assay (6 well plates); format: cell-based; conditions: H61 cells in soft agar, colonies counted after Day 13
Description: Clonogenic Assay (6 well plates)
Sometime previous to setting up an actual test:
1. Make up 1.5% Bacto Agar in Milli-Q water and autoclave.
2. Make up 500 mL 2× DMEM-HG without phenol red by combining the following:
1 bottle DMEM base powder (Sigma D-5030)
Adjust pH to 7.1 with HCl; filter sterilize.
1. Set up makeshift water bath (beaker of water with thermometer, on hot plate) in the hood. Keep water temperature between 37° C. to 43° C.
2. […] 1.5% Bacto Agar for approximately 2 minutes on high, or until completely melted. Then let it cool somewhat before using it. (You can keep it from resolidifying by setting the bottle on the hot plate.) […]
Bottom Layer (0.6% agar) Top Layer (0.3% agar)
20% calf serum 20% calf serum
40% Bacto Agar (1.5%) 20% Bacto Agar (1.5%)
(H61 cells: NIH transformed
Depending on the volume of each layer needed, use either 50 mL conical tubes or 200 mL turnip tubes which can be floated in the "water bath".
4. Add 1 mL of bottom layer agar/medium to each well: deliver 1 mL warm agar/medium to a well; then using the tip of the pipet, spread the agar/medium around to completely cover the bottom. Repeat with next well.
5. Allow the plates to set at room temperature for about 5 minutes until the bottom layer solidifies.
6. Label sterile Falcon 2054 (12×75 mm) tubes and add appropriate volume of drug solutions into them.
7. Aliquot 4 μL of DMSO or drug solution per 1 mL of agar/medium to appropriate tubes; then add the agar/medium/cells to each tube. Always add 1 mL more than will actually be needed. Mix up and down in the pipet (gently); then deliver 1 mL to the center of each well. The upper layer is less viscous, so it will generally spread out over the bottom layer unaided. If necessary, rotate the plane of the plate gently to spread the top layer evenly over the bottom layer.
8. Let plates set for 5 or 10 minutes at room temperature to solidify, then put into 5% CO2, 37° C. incubator.
9. On Day 13, add 0.5 mL of INT (tetrazolium 1 mg/mL in Milli-Q H2 O, filter sterilized) and return plates to incubator.

H61 xenografts = assay: In vivo activity, H61 xenografts in NCR-NU mice
Description: Female NCR-NU mice were randomized and then inoculated with trocar fragments of H61 xenografts obtained from donor animals on Day 0 of the experiment. H61 cells are NIH3T3 cells that have been transfected and transformed with mutant human H-ras. The animals were then re-randomized to treatment groups. Tumor-bearing mice were then treated via subcutaneous (SC) or interperitoneal (IP) injections of Example 1 every 12 hours at various dose levels for 14 days beginning on Day 1. Tumors were measured with calipers in two orthogonal dimensions several times per week for the duration of the experiment. Tumor burdens in milligrams were estimated from the caliper measurements by standard methods (mg=axb^2 /2, where a and b are the measurements of the major and minor axes of the tumor, respectively.) Inhibition of tumor growth was assessed at the last day of treatment (14). […] In mice given Example 1 IP at either 37 or 23 mg/kg/injection, no tumors were evident at the sites of inoculation, indicating complete (100%) inhibition of tumor growth.

[4] = HEPES buffer pH 7.4 with 5 mM potassium phosphate, read-out: PFT Inhibitory Activity IC50 (μM) HEPES and 5 mM K3 PO4
[5] = HEPES buffer pH 7.4 without 5 mM potassium phosphate, read-out: PFT Inhibitory Activity IC50 (μM) HEPES
[6] = SC 96 mg/kg/injection every 12 hours for 14 days, last day of treatment (14)

IC50 [2, 4] [µM]	IC50 [2, 5] [µM]	Compound	Gel Shift (μM) M.E.D. (minimal effective dose to observe inhibition of ras farnesylation) [1] [µM]	IC50 [3] [nM]	inhibition of tumor growth (H61 xenografts; IP 23 mg/kg/injection every 12 hours for 14 days, no tumors evident at sites of inoculation) [%]	inhibition of tumor growth (H61 xenografts; IP 37 mg/kg/injection every 12 hours for 14 days, no tumors evident at sites of inoculation) [%]	inhibition of tumor growth (H61 xenografts; [6]) [%]	median tumor burden of the treated group (H61 xenografts; [6]) [mg]	inhibition of tumor growth (in words) (H61 xenografts; SC or IP every 12 hours for 14 days)	IC50 ([3]; 312 h) [nM]
0.36	< 0.001	C/C=C/CN(CC(=O)NCC1(c2ccccc2)CCC1)C(=O)[C@H](Cc1cnc[nH]1)NC(=O)OCc1ccccc1 (stereo in doubt) [Example 10, [(S)-trans]-[1-(But-2-enyl-{[(1-phenyl-cyclobutylmethyl)-carbamoyl]-methyl}-carbamoyl)-2-(3H-imidazol-4-yl)-ethyl]-carbamic Acid benzyl Ester]	≤ 0.05							
0.003	0.014	Cc1ccc(CN(CC(=O)NCC2(c3ccccc3)CCC2)C(=O)[C@H](Cc2c[nH]cn2)NC(=O)N(C)Cc2ccccc2)cc1 [Example 7, (S)-2-(3-Benzyl-3-methyl-ureido)-3-(1H-imidazol-4-yl)-N-(4 methyl-benyl)-N-{[(1-phenyl-cyclobutylmethy)-carbomyl]-methyl}-propionamide]	0.01							
0.18	7	O=C(CN(Cc1ccc(OCc2ccccc2)cc1)C(=O)[C@H](Cc1c[nH]cn1)NC(=O)OCc1ccccc1)NCC1(c2c(Cl)cccc2Cl)CCC1 [Example 9, (S)-[1-[(4-Benzyloxy-benyl)-({[1-(2,6-dichlorophenyl)-cyclobutylmethyl]-carbamoyl}-methyl)-carbamoyl]-2-(1H-imidazol-4-yl)-ethyl]-carbamic Acid benzyl Ester]	> 0.2							
0.015	0.068	CN(Cc1ccccc1)C(=O)N[C@@H](Cc1c[nH]cn1)C(=O)N(CC(=O)NCC1(c2ccccc2)CCC1)Cc1ccc(OCc2ccccc2)cc1 [Example 8, (S)-2-(3-Benzyl-3-methyl-ureido)-N-(4-benzyloxy-benzyl)-3-(1H-imidazol-4-yl)-N-{[(1-phenyl-cyclobutylmethyl)-carbamoyl]-methyl}-propionamide]	0.01							
0.33	< 0.001	CCCN(CC(=O)NCC1(c2ccccc2)CCC1)C(=O)[C@H](Cc1cnc[nH]1)NC(=O)OCc1ccccc1 [Example 11]	≤ 0.05							

More lines, now with the values behind:

Compound	IC50 [2, 4] [µM]	IC50 [2, 5] [µM]	Gel Shift (μM) M.E.D. (minimal effective dose to observe inhibition of ras farnesylation) [1] [µM]	IC50 [3] [nM]	inhibition of tumor growth (H61 xenografts; IP 23 mg/kg/injection every 12 hours for 14 days, no tumors evident at sites of inoculation) [%]	inhibition of tumor growth (H61 xenografts; IP 37 mg/kg/injection every 12 hours for 14 days, no tumors evident at sites of inoculation) [%]	inhibition of tumor growth (H61 xenografts; [6]) [%]	median tumor burden of the treated group (H61 xenografts; [6]) [mg]	inhibition of tumor growth (in words) (H61 xenografts; SC or IP every 12 hours for 14 days)	IC50 ([3]; 312 h) [nM]
N-((1S)-1-(1H-4-imidazolylmethyl)-2-oxo-2-(2-oxo-2-[(1-phenylcyclobutyl)methyl]aminoethyl)[(1R)-1-phenylethyl]aminoethyl)carbamate [Example 12]	0.34	0.002	≤ 0.05							
O=C(CN(Cc1ccc(OCc2ccccc2)cc1)C(=O)[C@H](Cc1c[nH]cn1)NC(=O)OCc1ccccc1)NCC1(c2ccccc2)CCC1 [Example 1, (S)-[1-((4-Benzyloxy-benzyl)-{[1-(phenyl-cyclobutylmethyl)-carbamoyl]-methyl}-carbamoyl)-2-(1H-imidazol-4-yl)-ethyl]-carbamic Acid benzyl ester]	0.006	0.075	0.02	47	100	100	73	672	significantly inhibited tumor growth	
O=C(CN(Cc1ccc(OCc2ccccn2)cc1)C(=O)[C@H](Cc1c[nH]cn1)NC(=O)OCc1ccccc1)NCC1(c2ccccc2)CCC1 [Example 3]	0.0017	0.14	0.002	140						
Cc1ccc(CN(CC(=O)NCC2(c3ccccc3)CCC2)C(=O)[C@H](Cc2c[nH]cn2)NC(=O)OCc2ccccc2)cc1 [Example 4, (S)-[1-((4-Methyl-benzyl)-{[(1-phenyl-cyclobutyl-methyl)-carbamoyl]-methyl}-carbamoyl)-2-(1H-imidazol-4-yl)-ethyl]-carbamic Acid Benzyl Ester]	0.0054	0.26	0.01							
O=C(CN(Cc1ccc(OCc2ccccc2)cc1)C(=O)[C@H](Cc1c[nH]cn1)NC(=O)OCc1ccccc1)NCC1(c2ccccc2)CC1 [Example 2]	0.006	0.15	0.02	180						
O=C(CN(Cc1ccc(OCc2ccccc2)cc1)C(=O)[C@H](Cc1c[nH]cn1)NC(=O)OCc1ccccc1)NCC1(c2ccccc2)CCCC1 [Example 5, (S)-[1-((4-Benzyloxy-benzyl)-{[(1-phenyl-cyclopentylmethyl)-carbamoyl]-methyl}-carbamoyl)-2-(1H-imidazol-4-yl)-ethyl]-carbamic Acid benzyl Ester]	0.018	0.32	0.2							320
COc1ccc(CN(CC(=O)NCC2(c3ccccc3)CCC2)C(=O)[C@H](Cc2c[nH]cn2)NC(=O)OCc2ccccc2)cc1 [Example 6, (S)-[1-((4-Methoxy-benzyl)-{[(1-phenyl-cyclobutyl-methyl)-carbamoyl]-methyl}-carbamoyl)-2-(1H-imidazol-4-yl)-ethyl]-carbamic Acid benzyl Ester]	0.0029	0.26	0.002							210
